These results are taken from ChEMBL document CHEMBL1201862, “PubChem BioAssay data set” (2004).

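Grown in 96-well plates, cells were treated for 48 hours with each compound at five concentrations. Insufficient inhibition: endpoint recorded as highest concentration tested. At the GI50, growth is halved.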 Calls of active or inactive are those of the source. Rule as the data show it: active = GI50 up to about 1.1 µM and inactive = higher.

Among the test systems are DLD-1; DMS-114; DMS-273; HOP-18; LXFL 529; M19-MEL; SNB-78; XF498; RXF 631.
Common to all, as to experiment: inhibition of tumour cell growth, NCI panel, 48 h

Take `CC(=O)CCn1[nH]c(=O)c(Cl)c(Cl)c1=O`: the GI50 with DLD-1, in the assay with DMS-114, with DMS-273, in the assay on HOP-18, in the assay with LXFL 529 and in the assay on M19-MEL was > 100 µM (inactive) each time. The GI50 in the assay on SNB-78 and in the assay on XF498 was > 100 µM (inactive) throughout.
Consider `O=C1/C(=C/c2cccc([N+](=O)[O-])c2)COc2ccccc21`, for which the GI50 in the assay with DLD-1 was 2.94 µM (inactive); with DMS-114, 2.84 µM (inactive); in the assay with DMS-273, 1.95 µM (inactive); in the assay with HOP-18 it was 4.55 µM (inactive); in the assay on LXFL 529, 2.43 µM (inactive); with M19-MEL, 2.32 µM (inactive). Also, the GI50 in the assay on RXF 631 was 6 µM (inactive); with SNB-78, 6.53 µM (inactive).
Regarding `Cc1cc(N(CCC#N)CCC#N)ccc1/N=N/c1ccc([N+](=O)[O-])cc1`, the GI50 in the assay on DMS-114 is 19 µM (inactive); in the assay on DMS-273, 17 µM (inactive); with M19-MEL, > 100 µM (inactive); with SNB-78, 34.1 µM (inactive).
For the molecule `O=C(O)[C@@H]1CCCC[C@@H]1C(=O)N(C1CCCCC1)C1CCCCC1`, the GI50 in the assay with DLD-1, with DMS-114, in the assay on DMS-273, with LXFL 529, in the assay with M19-MEL and with RXF 631 was > 100 µM (inactive) throughout. For the same molecule, in the assay on SNB-78, the GI50 is > 100 µM (inactive).
`Cc1cc(OCC(O)CO)ccc1-c1ccccc1` (centres undefined): the GI50 with DMS-114, in the assay with DMS-273, in the assay with HOP-18, with LXFL 529, in the assay on M19-MEL and in the assay with SNB-78 was > 100 µM (inactive) each time. Also, the GI50 with XF498 is 37.1 µM (inactive).
For `CCOC(=O)C1=C(Nc2ccc(NC3=C(C(=O)OCC)C(=O)CS3)cc2)SCC1=O`, the GI50 is 20.7 µM (inactive) with DLD-1; 22.6 µM (inactive) with DMS-114; 20.7 µM (inactive) with DMS-273; 22.1 µM (inactive) in the assay on LXFL 529; 21.7 µM (inactive) in the assay on M19-MEL; 33.6 µM (inactive) in the assay with SNB-78. The GI50 in the assay with XF498 is 13.5 µM (inactive).
As to `CC1(C)C(=O)C(C)(C)C1=NNC(N)=S`, the GI50 in the assay on DMS-114, with DMS-273, with LXFL 529, with M19-MEL, with RXF 631 and in the assay with SNB-78 was > 100 µM (inactive) in each case. In the assay with XF498, the GI50 is > 100 µM (inactive).
With `CC(=O)NC(CCCN(Cc1ccccc1)C(=O)N(CCCl)N=O)C(=O)NCc1ccccc1` (centres undefined), the GI50 in the assay with DLD-1 was 62.7 µM (inactive); in the assay on DMS-114, > 100 µM (inactive); in the assay with DMS-273 it was 41 µM (inactive); in the assay on HOP-18 it was > 100 µM (inactive); in the assay on LXFL 529, > 100 µM (inactive); in the assay with SNB-78 it was 54.1 µM (inactive). Besides, in the assay on XF498, the GI50 was > 37.8 µM (inactive).
For the molecule `Cc1ccc(S(=O)(=O)C(C#N)c2nc3ccccc3nc2-n2ccnc2)cc1` (centres undefined), the GI50 in the assay on DLD-1, with DMS-114, in the assay with DMS-273, with HOP-18, in the assay with LXFL 529 and with M19-MEL was > 100 µM (inactive) in each case. The GI50 in the assay on SNB-78 and with XF498 was > 100 µM (inactive) each time.
Consider `COCOCC/C=C/C=O`, for which the GI50 in the assay with DLD-1, with DMS-114, in the assay on HOP-18, in the assay on LXFL 529, in the assay with SNB-78 and with XF498 was > 100 µM (inactive) in each case.
With `CC1(C)CC(C)(C)CC(O)(C2(O)CC(C)(C)CC(C)(C)C2)C1`, the GI50 in the assay on DMS-114, in the assay with DMS-273, with LXFL 529, with M19-MEL and in the assay on XF498 was > 100 µM (inactive) in each case.
As to `CN(C)CC(C)(C)C(=O)/C=C/c1ccccc1`, the GI50 with DLD-1 was 12.6 µM (inactive); in the assay on DMS-114, 14.2 µM (inactive); in the assay with DMS-273 it was 16.9 µM (inactive); in the assay with HOP-18, 17.1 µM (inactive); with LXFL 529, 12.3 µM (inactive); in the assay on M19-MEL it was 16.3 µM (inactive). Besides, the GI50 in the assay on SNB-78 is 14.7 µM (inactive); in the assay with XF498 it was 11.6 µM (inactive).
Turning to `CN(C)CCn1cnc2sc3ccccc3c21`, the GI50 is > 100 µM (inactive) in the assay on DMS-114; 20.2 µM (inactive) in the assay on HOP-18; > 100 µM (inactive) in the assay on LXFL 529; > 100 µM (inactive) in the assay with M19-MEL; > 100 µM (inactive) in the assay on RXF 631; > 100 µM (inactive) in the assay with SNB-78. In the assay with XF498, the GI50 was > 100 µM (inactive).
As to `CC(=O)[C@]1(O)Cc2c(O)c3c(c(O)c2[C@@H](OC2CC(N)C(O)C(C)O2)C1)C(=O)c1c(OCc2ccccc2)cccc1C3=O` (some centres undefined), the GI50 was 1.36 µM (inactive) in the assay on DMS-114; 0.302 µM (active) in the assay with DMS-273; 1.71 µM (inactive) in the assay with HOP-18; 1.14 µM (inactive) in the assay on LXFL 529; 4.38 µM (inactive) in the assay with SNB-78; 1.6 µM (inactive) in the assay with XF498.
Turning to `CC(Oc1ccc(Oc2cnc3ccc(Cl)cc3n2)cc1)C(=O)O` (centres undefined), the GI50 with DLD-1, in the assay with DMS-114, in the assay with DMS-273, in the assay with HOP-18, with LXFL 529 and in the assay with M19-MEL was > 100 µM (inactive) throughout. Besides, the GI50 with SNB-78 and in the assay with XF498 was > 100 µM (inactive) in each case.
With `Nc1nc(N)c2ncn(CCOC(c3ccccc3)P(=O)(O)O)c2n1` (centres undefined), the GI50 in the assay with DLD-1, in the assay on DMS-114, in the assay with DMS-273, in the assay with M19-MEL, in the assay on SNB-78 and with XF498 was > 100 µM (inactive) in each case.
`CC1CC[C@]2(C(=O)O)CCC3(C)C(=CC(=O)C4[C@@]5(C)CCC(=O)C(C)(C)C5CC[C@]43C)[C@@H]2[C@H]1C` (some centres undefined): the GI50 was 19.7 µM (inactive) in the assay on DMS-114; 31.9 µM (inactive) with HOP-18; 18.6 µM (inactive) in the assay with LXFL 529; 23.3 µM (inactive) in the assay with M19-MEL; 27.3 µM (inactive) in the assay on RXF 631; 46.2 µM (inactive) in the assay on SNB-78. Further, the GI50 with XF498 was 10 µM (inactive).
For `COc1cc(C)c2c(c1C)OC(=O)c1c(C)c(Cl)c(O)c(C=O)c1O2`, the GI50 was 11.6 µM (inactive) in the assay with DLD-1; 14.9 µM (inactive) in the assay on DMS-273; 13.9 µM (inactive) with LXFL 529; 15.5 µM (inactive) with RXF 631; 13.2 µM (inactive) in the assay on SNB-78; 12.3 µM (inactive) in the assay with XF498.
As to `Cc1cc(C2CCCCC2)n(O)c(=O)c1` [CICLOPIROX OLAMINE], the GI50 was 5.46 µM (inactive) with DLD-1; 4.74 µM (inactive) in the assay on DMS-114; 39.8 µM (inactive) in the assay with HOP-18; 4.2 µM (inactive) in the assay with LXFL 529; 7.52 µM (inactive) in the assay on M19-MEL; 5.37 µM (inactive) with RXF 631. Also, the GI50 in the assay on XF498 was 10.7 µM (inactive).
